Assay results as given in patent publication US20090221095A1, “Colorimetric Screening of DNA Binding/Intercalating Agents with Gold Nanoparticle Probes” (NORTHWESTERN UNIVERSITY, priority 2005, published 2009).

Key:
Format in all cases: binding
[1] = tested on: duplex DNA between NP-1 and NP-2; test: Melting temperature of NP-1/NP-2 gold nanoparticle duplex nanoassemblies (520 nm); settings: NP-1 and NP-2 1.5 nM each, intercalator 5 μM, 10 mM PBS pH 7.0, NaCl 0.1 M, control 26.4
Description: (§1) This method also utilizes the aggregation-induced, red-to-blue color change associated with 13 nm Au nanoparticles. Gold nanoparticles are functionalized with one of two complementary thiol-modified oligonucleotide strands and are denoted NP-1 and NP-2. When NP-1 and NP-2 are combined, they form aggregates through a reversible DNA hybridization process. This process results in a red-to-blue color change due to a red-shifting and dampening of the nanoparticle plasmon resonance. Increasing the temperature above the melting temperature of the DNA reverses the process, and the particles dissociate with a concomitant blue-to-red color change. […] This increased stability is reflected by an increase in melting temperature. Note that the shape and breadth of the transition is almost independent of the intercalator (FIG. 4). Therefore, by monitoring the blue-to-red color transition of hybridized oligonucleotide-modified Au nanoparticles in the presence of different compounds, the relative strength of intercalator binding can be determined with the naked-eye.
(§2) The assay is initiated by mixing NP-1 and NP-2 (1.5 nM each) in a 1:1 molar ratio in 10 mM PBS buffer (pH=7.0, NaCl 0.1 M. The melting temperatures of the nanoassemblies (NP-1 and NP-2) were then determined in the presence of 4′,6-diamidino-2-phenylindole (DAPI), ellipticine (EIPT), Amsacrine (AMSA), daunorubicin (DNR), anthraquinone-2-carboxylic acid (AQ2A), ethidium bromide (EB), and 9-aminoacridine (9-AA) (5 μM), respectively. UV melting profiles were measured by monitoring the absorbance at 520 nm at a scan rate of 0.5° C. min^−1. Melting temperatures were determined by taking the maxima of the first derivative of the melting curves. Control experiments were run by determining the melting temperatures of unmodified duplex DNA (DNA-1: 5′-TAACAATAA-3′, DNA-2: 5′-TTATTGTTA-3′) in the presence of all seven intercalators shown in Table 1.

[2] = tested on: unmodified duplex DNA (DNA-1: 5′-TAACAATAA-3′, DNA-2: 5′-TTATTGTTA-3′); test: Melting temperature of solution-phase unmodified duplex DNA (no nanoparticles); settings: for Tm, melting temperature of solution-phase unmodified DNA: 2 uM duplex DNA, 5 uM DNA binder, control (no DNA binder) 19.1; for relative trend in binding strength: from control experiments, Tm of solution-phase unmodified DNA (Table 2)
Method: as §2
To determine the Tm of the duplex DNA in the presence of DNA binders, 2 μM duplex DNA and 5 μM DNA binder were combined in 0.3 M NaCl 10 mM PBS. To determine the Tm of the triplex DNA in the presence of DNA binders, 1 μM of each strand and 6 μM of each DNA binder were combined in 0.5 M NaCl 10 mM PBS. UV-vis melting curves were measured on a CARRY 500 spectrophotometer equipped with a circulating bath. The melting process was monitored by measuring the change in extinction at 260 nm. The solutions were stirred continuously with a magnetic stir bar as the solution temperature was increased at a rate of 0.5° C./min. The first derivative generated from the melting curves was used to determine the Tm.

[3] = tested on: duplex DNA between NP-1 and NP-2; test: Naked-eye color change of NP-1/NP-2 nanoassembly at specific temperatures; settings: for color of nanoassembly: NP-1 and NP-2 1.5 nM each, intercalator 5 μM; for trend of intercalator binding affinities for DNA: from the color change with temperature
Description: as §1
In general, assay methods that can detect drug candidates by the naked eye, without resorting to any instrumentation, are convenient, and for this reason, an assay that could seem for drug candidates based on DNA intercalation would be of great interest. […] As the temperature increases, the color change from blue to red occurs at specific temperatures. At 25° C. all eight cells (one control and seven intercalators) appear light blue/purple in color. At 30° C., the nanoassemblies containing the control and weak intercalators turn red in color leaving only the nanoassemblies containing DAPI, DNR, and EB as blue/purple.

[4] = tested on: duplex DNA on chip surface; test: Chip-based scanometric detection of duplex DNA binders (silver enhancement); settings: binder 5 μM
Method: N-Hydroxysuccinimide-activated Codelink glass microarray slides (Amersham, G. E. Healthcare) were arrayed with amine-terminated oligonucleotides (5′-TAA CAA TAA-A10-NH2-3′, Integrated DNA Technologies, Inc.) according to the manufacturer's protocol. The oligonucleotides were printed in triplicate using a GME 418 robotic pin-and-ring microarrayer (Affymetrix).
For scanometric detection of duplex or triplex DNA binding molecules, Au nanoparticles (1 nM) and DNA binding molecules (5 μM) in 10 mM PBS buffer of varying NaCl concentrations were added to the microarray slide under hybridization wells (Nanosphere, Inc.). For detection of triplex binders, 150 nM DNA-3 was added. DNA hybridization proceeded for 30 min (for duplex DNA binders) or 1 h (for triplex DNA binders) in a humidity chamber. After hybridization, the slides were washed three times with 0.5 M NaNO3 containing 0.02% Tween 20. The arrays were dried using a benchtop spinner. Silver enhancement solution (Nanosphere, Inc.) was added for Au-NP signal amplification (1 mL total volume/array, 1.5-min development time for duplex DNA binding molecules and 3 min for triplex binding molecules). The reaction was terminated by washing the slides with NANOpure® water and spin-drying. Light-scattering images from the silver-enhanced chips were recorded using the high-resolution Verigene ID system (Nanosphere, Inc.).
Capture strands of synthetic oligonucleotides are patterned on a glass chip using a microarrayer. The DNA chip is then exposed to DNA functionalized Au nanoparticles (complementary to the capture sequence) and a duplex DNA binder. […]
The hybridization of single stranded DNA to form duplex DNA is a reversible process and the stability of the duplex is affected by several factors such as temperature and salt concentration. […] Therefore, by performing the nanoparticle hybridization process in the presence of different duplex DNA binders as a function of temperature, the relative binding strength of duplex DNA binders can be determined.

SMILES	Tm^a, melting temperature of nanoassemblies [1]	Tm, melting temperature of solution-phase unmodified DNA [2]	relative trend in binding strength [2]	color of nanoassembly ([3]; 30° C.)	color of nanoassembly ([3]; 40° C.)	trend of intercalator binding affinities for DNA [3]	signal after silver enhancement ([4]; hybridization at 30° C.)	signal after silver enhancement ([4]; temperature further increased above 30° C.)
Nc1c2ccccc2nc2ccccc12 [9-AA, 9-aminoacridine]	30.9 °C	19.3 °C	–	–	–	–	–	–
O=C(O)c1ccc2c(c1)C(=O)c1ccccc1C2=O [AQ2A, anthraquinone-2-carboxylic acid]	28.5 °C	19.4 °C	–	–	–	–	–	–
N=C(N)c1ccc(-c2cc3ccc(C(=N)N)cc3[nH]2)cc1 [DAPI, 4′,6-diamidino-2-phenylindole]	50.4 °C	27.8 °C	DAPI>DNR>EB>other intercalators	blue/purple	turn red except the nanoassembly containing DAPI	DAPI>DNR˜EB>other intercalators	leaving the intermediate and strong DNA binders	leaving only the strong duplex DNA binder
COc1cccc2c1C(=O)c1c(O)c3c(c(O)c1C2=O)C[C@@](O)(C(C)=O)C[C@@H]3O[C@H]1C[C@H](N)[C@H](O)[C@H](C)O1 [DNR, daunorubicin]	38.4 °C	25.4 °C	DAPI>DNR>EB>other intercalators	blue/purple	–	DAPI>DNR˜EB>other intercalators	leaving the intermediate and strong DNA binders	–
Cc1c2ccncc2c(C)c2c1[nH]c1ccccc12 [EIPT, ellipticine]	29.2 °C	20.5 °C	–	–	–	–	–	–
